From ChEMBL document CHEMBL4813994, “Discovery of novel and potent PARP/PI3K dual inhibitors for the treatment of cancer” (Eur J Med Chem, 2021)

What was measured:
[1] = tested on: SW-620; assay: Antiproliferative activity against human BRCA-2 proficient SW-620 cells assessed as reduction in cell growth incubated for 7 days by cell titer-glo assay; format: functional, cell-based; conditions: SW-620, 168 h
[2] = molecular target: Poly [ADP-ribose] polymerase 1 (Homo sapiens, UniProt P09874); assay: Inhibition of PARP1 (unknown origin) using biotin-NAD+ as substrate incubated for 1 hr by ELISA
[3] = tested on: HCT-116; assay: Antiproliferative activity against human BRCA-2 deficient HCT-116 cells assessed as reduction in cell growth incubated for 7 days by cell titer-glo assay; format: functional, cell-based; conditions: HCT-116, 168 h
[4] = tested on: HCC1937; assay: Antiproliferative activity against human BRCA-1 deficient HCC1937 cells assessed as reduction in cell growth incubated for 7 days by cell titer-glo assay; format: functional, cell-based; conditions: HCC1937, 168 h
[5] = tested on: MDA-MB-231; assay: Antiproliferative activity against human BRCA proficient MDA-MB-231 cells assessed as reduction in cell growth incubated for 7 days by cell titer-glo assay; format: functional, cell-based; conditions: MDA-MB-231, 168 h
[6] = tested on: MDA-MB-468; assay: Antiproliferative activity against human BRCA proficient MDA-MB-468 cells assessed as reduction in cell growth incubated for 7 days by cell titer-glo assay; format: functional, cell-based; conditions: MDA-MB-468, 168 h
[7] = molecular target: Phosphatidylinositol 4,5-bisphosphate 3-kinase catalytic subunit alpha isoform (Homo sapiens, UniProt P42336); assay: Inhibition of PI3Kalpha (unknown origin) using PIP2 as substrate measured after 40 mins by ADP-glo plus luminescence assay
[8] = tested on: MDA-MB-468; assay: Antitumor activity against human MDA-MB-468 cells xenografted in BALB/c mouse assessed as tumor growth inhibition at 27.5 mg/kg, ip administered for 32 days along with olaparib relative to control; format: functional; conditions: MDA-MB-468, ip, 768 h, time 32 day, read-out: TGI
[9] = tested on: MDA-MB-468; assay: Antitumor activity against human MDA-MB-468 cells xenografted in BALB/c mouse assessed as tumor growth inhibition at 27.5 mg/kg, ip once daily administered for 32 days relative to control; format: functional; conditions: MDA-MB-468, ip, 768 h, time 32 day, read-out: TGI
[10] = tested on: MDA-MB-468; assay: Antitumor activity against human MDA-MB-468 cells xenografted in BALB/c mouse assessed as tumor growth inhibition at 50 mg/kg, ip once daily administered for 32 days relative to control; format: functional; conditions: time 32 day
[11] = tested on: MDA-MB-468; assay: Antitumor activity against human MDA-MB-468 cells xenografted in BALB/c mouse assessed as tumor growth inhibition at 50 mg/kg, ip administered for 32 days along with GDC-0980 relative to control; format: functional; conditions: time 32 day
[12] = molecular target: RAC-alpha serine/threonine-protein kinase (Homo sapiens, UniProt P31749); assay: Inhibition of AKT (unknown origin)
[13] = tested on: MDA-MB-468; assay: Antitumor activity against human MDA-MB-468 cells xenografted in BALB/c mouse assessed as tumor growth inhibition at 20 mg/kg, ip once daily administered for 32 days relative to control; format: functional; conditions: MDA-MB-468, ip, 768 h, time 32 day, read-out: TGI
[14] = molecular target: Serine/threonine-protein kinase mTOR (Homo sapiens, UniProt P42345); assay: Inhibition of mTOR (unknown origin)
[15] = molecular target: T1, Phosphatidylinositol 4,5-bisphosphate 3-kinase catalytic subunit delta isoform (Homo sapiens, UniProt O00329); assay: Inhibition of PI3Kdelta (unknown origin) using PIP2 as substrate measured after 2 hrs by ADP-glo plus luminescence assay
T1 sequence (O00329 whole entry): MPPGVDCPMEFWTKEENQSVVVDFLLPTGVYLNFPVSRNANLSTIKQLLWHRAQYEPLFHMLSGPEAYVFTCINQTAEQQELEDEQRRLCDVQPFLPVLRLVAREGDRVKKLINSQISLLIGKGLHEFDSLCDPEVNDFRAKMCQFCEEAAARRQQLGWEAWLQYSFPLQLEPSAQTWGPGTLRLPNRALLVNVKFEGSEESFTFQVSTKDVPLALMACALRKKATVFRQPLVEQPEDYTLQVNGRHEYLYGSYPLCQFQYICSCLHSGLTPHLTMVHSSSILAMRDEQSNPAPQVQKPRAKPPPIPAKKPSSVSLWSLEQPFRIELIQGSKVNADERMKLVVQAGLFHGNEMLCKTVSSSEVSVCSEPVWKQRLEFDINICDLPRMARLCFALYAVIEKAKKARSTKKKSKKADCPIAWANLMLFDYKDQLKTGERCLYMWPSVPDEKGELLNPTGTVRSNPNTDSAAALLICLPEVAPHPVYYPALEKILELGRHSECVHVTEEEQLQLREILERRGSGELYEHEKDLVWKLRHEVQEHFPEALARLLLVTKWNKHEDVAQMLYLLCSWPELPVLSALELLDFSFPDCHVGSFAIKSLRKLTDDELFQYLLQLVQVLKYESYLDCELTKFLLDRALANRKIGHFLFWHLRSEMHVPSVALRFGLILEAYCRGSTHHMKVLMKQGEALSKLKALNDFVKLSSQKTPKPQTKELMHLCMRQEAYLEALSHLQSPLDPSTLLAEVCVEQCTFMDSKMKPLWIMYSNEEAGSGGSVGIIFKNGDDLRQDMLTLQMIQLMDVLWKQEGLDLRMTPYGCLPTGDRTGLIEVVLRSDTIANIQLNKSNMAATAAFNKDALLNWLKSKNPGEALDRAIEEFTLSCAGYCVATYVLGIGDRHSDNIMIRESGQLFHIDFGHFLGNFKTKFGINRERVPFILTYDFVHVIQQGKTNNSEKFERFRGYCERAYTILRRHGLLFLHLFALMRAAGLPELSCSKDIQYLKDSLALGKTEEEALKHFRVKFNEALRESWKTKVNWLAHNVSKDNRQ

[16] = molecular target: Poly [ADP-ribose] polymerase 2 (Homo sapiens, UniProt Q9UGN5); assay: Inhibition of PARP2 (unknown origin) using biotin-NAD+ as substrate incubated for 1 hr by ELISA
[17] = molecular target: Phosphatidylinositol 4,5-bisphosphate 3-kinase catalytic subunit beta isoform (Homo sapiens, UniProt P42338); assay: Inhibition of PI3Kbeta (unknown origin) using PIP2 as substrate measured after 1 hr by ADP-glo plus luminescence assay
[18] = molecular target: Voltage-gated inwardly rectifying potassium channel KCNH2 (Homo sapiens, UniProt Q12809); assay: Inhibition of human ERG
[19] = molecular target: Phosphatidylinositol 4,5-bisphosphate 3-kinase catalytic subunit gamma isoform (Homo sapiens, UniProt P48736); assay: Inhibition of PI3Kgamma (unknown origin) using PIP2 as substrate measured after 1 hr by ADP-glo plus luminescence assay
Chain of Phosphatidylinositol 4,5-bisphosphate 3-kinase catalytic subunit gamma isoform (P48736 whole entry, canonical isoform): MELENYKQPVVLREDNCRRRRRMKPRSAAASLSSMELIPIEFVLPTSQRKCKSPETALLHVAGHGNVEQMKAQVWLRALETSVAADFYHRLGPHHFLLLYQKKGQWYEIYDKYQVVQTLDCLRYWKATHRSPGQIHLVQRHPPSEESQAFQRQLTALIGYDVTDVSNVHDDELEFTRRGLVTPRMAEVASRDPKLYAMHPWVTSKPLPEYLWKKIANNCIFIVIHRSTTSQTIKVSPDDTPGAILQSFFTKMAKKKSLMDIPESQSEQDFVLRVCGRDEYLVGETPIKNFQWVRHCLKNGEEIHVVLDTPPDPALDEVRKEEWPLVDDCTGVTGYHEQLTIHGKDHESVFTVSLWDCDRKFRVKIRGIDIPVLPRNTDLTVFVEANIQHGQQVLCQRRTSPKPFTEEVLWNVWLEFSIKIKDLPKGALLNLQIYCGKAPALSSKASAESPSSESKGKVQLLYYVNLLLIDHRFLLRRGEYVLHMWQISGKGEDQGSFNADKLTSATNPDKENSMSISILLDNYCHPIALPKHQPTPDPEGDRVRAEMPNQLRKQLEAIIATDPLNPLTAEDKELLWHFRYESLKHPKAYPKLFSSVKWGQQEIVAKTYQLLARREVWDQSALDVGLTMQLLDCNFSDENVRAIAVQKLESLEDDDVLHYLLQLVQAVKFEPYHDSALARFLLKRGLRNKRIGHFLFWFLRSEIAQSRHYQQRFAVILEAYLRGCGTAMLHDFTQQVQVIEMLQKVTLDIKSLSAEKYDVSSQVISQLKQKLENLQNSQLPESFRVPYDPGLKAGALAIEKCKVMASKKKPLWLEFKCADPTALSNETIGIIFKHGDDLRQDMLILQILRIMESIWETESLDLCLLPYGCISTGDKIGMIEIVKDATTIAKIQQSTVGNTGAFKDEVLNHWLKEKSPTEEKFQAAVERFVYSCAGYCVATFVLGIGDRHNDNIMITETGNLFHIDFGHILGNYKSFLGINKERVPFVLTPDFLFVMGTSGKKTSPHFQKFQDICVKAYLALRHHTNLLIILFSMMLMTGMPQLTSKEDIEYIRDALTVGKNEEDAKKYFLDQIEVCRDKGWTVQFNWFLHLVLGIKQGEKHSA

Chain of Phosphatidylinositol 4,5-bisphosphate 3-kinase catalytic subunit beta isoform (P42338 whole entry, canonical isoform): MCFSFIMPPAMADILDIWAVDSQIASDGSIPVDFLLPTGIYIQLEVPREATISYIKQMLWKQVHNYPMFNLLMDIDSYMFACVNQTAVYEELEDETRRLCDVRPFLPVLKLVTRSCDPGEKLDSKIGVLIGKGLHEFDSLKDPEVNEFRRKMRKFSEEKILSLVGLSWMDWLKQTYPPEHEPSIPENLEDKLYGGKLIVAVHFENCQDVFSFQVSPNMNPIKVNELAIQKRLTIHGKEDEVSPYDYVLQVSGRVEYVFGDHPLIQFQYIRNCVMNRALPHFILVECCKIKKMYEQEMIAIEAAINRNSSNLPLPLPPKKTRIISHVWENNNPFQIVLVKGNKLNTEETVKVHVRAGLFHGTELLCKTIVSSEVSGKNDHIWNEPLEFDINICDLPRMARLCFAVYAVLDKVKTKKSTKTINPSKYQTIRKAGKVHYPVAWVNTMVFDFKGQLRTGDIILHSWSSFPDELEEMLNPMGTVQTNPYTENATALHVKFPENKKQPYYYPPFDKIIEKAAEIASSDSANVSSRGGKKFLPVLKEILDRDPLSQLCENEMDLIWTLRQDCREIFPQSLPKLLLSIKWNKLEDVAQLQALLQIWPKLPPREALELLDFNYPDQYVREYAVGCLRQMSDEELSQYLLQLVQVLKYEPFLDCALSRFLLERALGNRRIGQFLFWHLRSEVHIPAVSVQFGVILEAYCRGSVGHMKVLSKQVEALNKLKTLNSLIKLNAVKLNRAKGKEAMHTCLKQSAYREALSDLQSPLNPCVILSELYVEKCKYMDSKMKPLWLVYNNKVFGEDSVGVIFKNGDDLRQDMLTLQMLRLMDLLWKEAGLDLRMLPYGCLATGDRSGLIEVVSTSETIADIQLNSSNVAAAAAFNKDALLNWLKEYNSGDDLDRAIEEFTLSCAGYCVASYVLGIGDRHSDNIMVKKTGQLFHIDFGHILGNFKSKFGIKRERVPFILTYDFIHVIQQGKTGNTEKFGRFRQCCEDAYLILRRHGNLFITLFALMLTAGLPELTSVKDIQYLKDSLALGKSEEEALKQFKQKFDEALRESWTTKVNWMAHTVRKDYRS
Chain of Phosphatidylinositol 4,5-bisphosphate 3-kinase catalytic subunit alpha isoform (P42336 whole entry, canonical isoform): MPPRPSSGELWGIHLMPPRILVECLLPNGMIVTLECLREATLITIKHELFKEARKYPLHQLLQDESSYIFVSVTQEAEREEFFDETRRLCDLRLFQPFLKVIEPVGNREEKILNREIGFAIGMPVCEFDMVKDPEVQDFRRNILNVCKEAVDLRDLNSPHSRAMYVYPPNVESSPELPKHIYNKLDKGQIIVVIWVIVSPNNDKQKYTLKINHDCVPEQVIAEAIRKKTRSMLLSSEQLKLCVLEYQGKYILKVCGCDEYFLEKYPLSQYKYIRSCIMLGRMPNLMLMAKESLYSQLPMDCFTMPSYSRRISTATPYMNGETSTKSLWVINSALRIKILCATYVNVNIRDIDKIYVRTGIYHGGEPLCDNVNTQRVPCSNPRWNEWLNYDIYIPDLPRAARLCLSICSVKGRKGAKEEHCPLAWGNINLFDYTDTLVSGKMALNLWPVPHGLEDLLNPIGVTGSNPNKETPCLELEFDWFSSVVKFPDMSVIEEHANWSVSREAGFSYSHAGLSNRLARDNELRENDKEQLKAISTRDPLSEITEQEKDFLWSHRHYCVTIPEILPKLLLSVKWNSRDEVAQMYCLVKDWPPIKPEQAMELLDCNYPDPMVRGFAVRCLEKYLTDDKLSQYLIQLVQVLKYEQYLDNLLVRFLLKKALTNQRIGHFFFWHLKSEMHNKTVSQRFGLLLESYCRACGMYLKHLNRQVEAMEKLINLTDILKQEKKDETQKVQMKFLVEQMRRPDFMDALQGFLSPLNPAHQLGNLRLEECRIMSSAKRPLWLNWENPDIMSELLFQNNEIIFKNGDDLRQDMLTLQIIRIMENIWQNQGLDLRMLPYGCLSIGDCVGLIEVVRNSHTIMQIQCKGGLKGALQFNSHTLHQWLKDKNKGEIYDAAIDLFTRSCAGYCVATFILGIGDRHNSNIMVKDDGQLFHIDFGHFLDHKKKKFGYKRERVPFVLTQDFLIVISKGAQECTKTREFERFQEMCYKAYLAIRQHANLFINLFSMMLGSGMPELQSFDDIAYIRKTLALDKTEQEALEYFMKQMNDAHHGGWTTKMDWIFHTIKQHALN
Chain of Poly [ADP-ribose] polymerase 2 (Q9UGN5 whole entry, canonical isoform): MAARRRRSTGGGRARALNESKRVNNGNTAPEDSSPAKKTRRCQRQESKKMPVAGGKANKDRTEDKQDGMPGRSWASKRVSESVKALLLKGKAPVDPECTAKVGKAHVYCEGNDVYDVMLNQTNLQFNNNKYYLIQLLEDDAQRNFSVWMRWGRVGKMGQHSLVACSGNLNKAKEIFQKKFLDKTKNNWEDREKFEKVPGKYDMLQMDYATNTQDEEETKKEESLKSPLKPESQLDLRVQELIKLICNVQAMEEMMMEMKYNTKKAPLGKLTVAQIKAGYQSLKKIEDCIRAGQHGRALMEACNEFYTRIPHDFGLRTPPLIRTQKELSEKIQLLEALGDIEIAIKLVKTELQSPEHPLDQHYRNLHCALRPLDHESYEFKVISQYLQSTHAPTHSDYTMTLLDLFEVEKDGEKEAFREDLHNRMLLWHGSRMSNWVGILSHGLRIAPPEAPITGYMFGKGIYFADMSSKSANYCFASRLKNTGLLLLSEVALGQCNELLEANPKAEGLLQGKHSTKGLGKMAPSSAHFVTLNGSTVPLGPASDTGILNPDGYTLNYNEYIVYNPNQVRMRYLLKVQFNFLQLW
Chain of Poly [ADP-ribose] polymerase 1 (P09874 whole entry): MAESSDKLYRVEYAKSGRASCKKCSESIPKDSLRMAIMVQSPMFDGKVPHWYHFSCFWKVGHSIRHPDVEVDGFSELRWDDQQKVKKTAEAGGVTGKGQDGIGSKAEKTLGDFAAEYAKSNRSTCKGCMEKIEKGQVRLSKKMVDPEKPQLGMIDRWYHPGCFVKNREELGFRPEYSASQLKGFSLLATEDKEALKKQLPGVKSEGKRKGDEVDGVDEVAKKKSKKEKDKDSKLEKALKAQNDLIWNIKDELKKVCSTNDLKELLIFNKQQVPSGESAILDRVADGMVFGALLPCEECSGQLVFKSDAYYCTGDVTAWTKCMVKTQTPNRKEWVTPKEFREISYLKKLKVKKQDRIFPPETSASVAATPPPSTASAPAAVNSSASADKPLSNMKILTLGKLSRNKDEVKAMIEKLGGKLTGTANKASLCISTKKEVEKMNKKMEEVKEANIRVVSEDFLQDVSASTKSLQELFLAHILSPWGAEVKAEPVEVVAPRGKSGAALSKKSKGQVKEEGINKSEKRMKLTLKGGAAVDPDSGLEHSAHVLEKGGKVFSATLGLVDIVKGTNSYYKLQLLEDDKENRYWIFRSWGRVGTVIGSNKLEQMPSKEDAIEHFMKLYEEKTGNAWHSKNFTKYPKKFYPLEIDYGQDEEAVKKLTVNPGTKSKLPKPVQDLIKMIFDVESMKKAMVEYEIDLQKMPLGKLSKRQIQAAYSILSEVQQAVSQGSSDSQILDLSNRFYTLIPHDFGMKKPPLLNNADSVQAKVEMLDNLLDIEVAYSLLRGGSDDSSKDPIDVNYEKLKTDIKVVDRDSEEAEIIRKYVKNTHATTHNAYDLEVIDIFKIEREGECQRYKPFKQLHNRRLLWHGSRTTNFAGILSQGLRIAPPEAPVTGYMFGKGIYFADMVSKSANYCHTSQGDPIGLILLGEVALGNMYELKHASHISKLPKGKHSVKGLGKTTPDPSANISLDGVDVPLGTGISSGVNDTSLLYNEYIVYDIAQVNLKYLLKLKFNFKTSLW

SMILES	IC50 [1] [nM]	IC50 [2] [nM]	IC50 [3] [nM]	IC50 [4] [nM]	IC50 [5] [nM]	IC50 [6] [nM]	IC50 [7] [nM]	other results
Cc1c(CN2CCN(C(=O)c3cc4cccc(C(N)=O)c4o3)CC2)sc2c(N3CCOCC3)nc(-c3ccc(N)c(F)c3)nc12	> 10000	9.18	2320	3860	> 10000	> 10000	1180	–
Cc1c(CN2CCN(C(=O)c3cc4cccc(C(N)=O)c4o3)CC2)sc2c(N3CCOCC3)nc(-c3ccc(N)cc3)nc12	7980	22.6	3970	4580	7170	9260	319	–
Cc1c(CN2CCN(C(=O)c3cc(Cc4n[nH]c(=O)c5ccccc45)ccc3F)CC2)sc2c(N3CCOCC3)nc(-c3cnc(N)cc3C(F)(F)F)nc12	7230	197	690	1080	3600	2650	7	–
Nc1ncc(-c2nc(N3CCOCC3)c3sc(CN4CCN(C(=O)c5cc(Cc6n[nH]c(=O)c7ccccc67)ccc5F)CC4)cc3n2)cn1	–	8.8	–	–	–	–	3.7	–
Cc1c(CN2CCN(C(=O)[C@H](C)O)CC2)sc2c(N3CCOCC3)nc(-c3cnc(N)nc3)nc12 [APITOLISIB]	1720	–	1110	3210	2460	1670	–	inhibition in vivo at 27.5 mg/kg [8]: 45.9%; inhibition in vivo at 27.5 mg/kg [9]: 38%
Cc1c(CN2CCN(C(=O)c3cc4cccc(C(N)=O)c4o3)CC2)sc2c(N3CCOCC3)nc(-c3ccc(F)c(N)c3)nc12	> 10000	16.7	5840	5380	> 10000	> 10000	1380	–
Cc1c(CN2CCN(C(=O)c3cc4cccc(C(N)=O)c4o3)CC2)sc2c(N3CCOCC3)nc(-c3cnc(N)cc3C(F)(F)F)nc12	3370	101	690	500	3170	1630	2.3	–
Cc1c(CN2CCN(C(=O)c3cc4cccc(C(N)=O)c4o3)CC2)sc2c(N3CCOCC3)nc(-c3ccc(N)nc3)nc12	–	1.9	–	–	–	–	14	–
Cc1c(CN2CCN(C(=O)c3cc4cccc(C(N)=O)c4o3)CC2)sc2c(N3CCOCC3)nc(-c3ccc4[nH]ccc4c3)nc12	–	31.7	–	–	–	–	–	–
Cc1c(CN2CCN(C(=O)c3cc4cccc(C(N)=O)c4o3)CC2)sc2c(N3CCOCC3)nc(-c3cccc4[nH]ncc34)nc12	3320	42.4	890	800	3300	> 10000	168	–
Cc1c(CN2CCN(C(=O)c3cc4cccc(C(N)=O)c4o3)CC2)sc2c(N3CCOCC3)nc(-c3ccc4cn[nH]c4c3)nc12	> 10000	91.5	5070	3570	> 10000	> 10000	3810	–
O=C(c1cc(Cc2n[nH]c(=O)c3ccccc23)ccc1F)N1CCN(C(=O)C2CC2)CC1 [OLAPARIB]	> 10000	–	> 10000	> 10000	> 10000	> 10000	–	TGI [10]: 27.91%; TGI [11]: 45.93%
Cc1c(CN2CCN(C(=O)c3cc4cccc(C(N)=O)c4o3)CC2)sc2c(N3CCOCC3)nc(-c3cccc4[nH]ccc34)nc12	–	140	–	–	–	–	1140	–
Cc1c(CN2CCN(C(=O)c3cc4cccc(C(N)=O)c4o3)CC2)sc2c(N3CCOCC3)nc(-c3ccc(N)cc3F)nc12	–	40.1	–	–	–	–	–	–
Cc1c(CN2CCN(C(=O)c3cc4cccc(C(N)=O)c4o3)CC2)sc2c(N3CCOCC3)nc(-c3cnc(N)nc3)nc12	880	0.91	280	290	920	1020	1.5	IC50 [12]: > 100000 nM; inhibition in vivo at 20 mg/kg [13]: 48.8%; IC50 [14]: 12 nM; IC50 [15]: 2.7 nM; IC50 [16]: 0.92 nM; IC50 [17]: 43 nM; IC50 [18]: > 30000 nM; IC50 [19]: 73 nM
NC(=O)c1cccc2cc(C(=O)N3CCN(Cc4cc5nc(-c6cnc(N)nc6)nc(N6CCOCC6)c5o4)CC3)oc12	–	2.97	–	–	–	–	0.51	IC50 [14]: 216 nM; IC50 [15]: 4.3 nM; IC50 [16]: 1.34 nM; IC50 [17]: 69 nM; IC50 [19]: 141 nM
Cc1c(CN2CCN(C(=O)c3cc(Cc4n[nH]c(=O)c5ccccc45)ccc3F)CC2)sc2c(N3CCOCC3)nc(-c3cnc(N)nc3)nc12	920	1.5	310	410	1300	1080	2	IC50 [12]: > 100000 nM; inhibition in vivo at 20 mg/kg [13]: 56.4%; IC50 [14]: 50 nM; IC50 [15]: 6.8 nM; IC50 [16]: 0.89 nM; IC50 [17]: 53 nM; IC50 [19]: 25 nM
NC(=O)c1cccc2cc(C(=O)N3CCN(Cc4cc5nc(-c6cnc(N)nc6)nc(N6CCOCC6)c5s4)CC3)oc12	–	1.98	–	–	–	–	0.6	IC50 [14]: 23 nM; IC50 [15]: 1.8 nM; IC50 [16]: 1.19 nM; IC50 [17]: 11 nM; IC50 [19]: 31 nM
